Common to all, as to type: cell-based
What all share (conditions): 4 hours treatment, read-out: suppression of RET autophosphorylation IC50

The target of assay [1] is T1, KIF5B-RET G810R (Homo sapiens, UniProt P07949, G810R).
T1 construct: KIF5B (N-terminal fusion partner, kinesin-1 heavy chain, P33176); expressed in transfected cells; host or cells: Ba/F3 cells, lentiviral transduction (pCDH-CMV-MCS-EF1-Puro); the other entry of the earlier key: KIF5B (P33176, Kinesin-1 heavy chain)
As to the kind of experiment: Immunoblotting for cellular RET phosphorylation in Ba/F3 KIF5B-RET G810R.

The target in assay [2] is T2, KIF5B-RET WT (Homo sapiens, UniProt P07949).
T2 construct: KIF5B (N-terminal fusion partner, kinesin-1 heavy chain, P33176); expressed in transfected cells; host or cells: Ba/F3 cells, lentiviral transduction (pCDH-CMV-MCS-EF1-Puro); the other entry of the earlier key: KIF5B (P33176, Kinesin-1 heavy chain)
T2 sequence (P07949 713-1063 limits assumed): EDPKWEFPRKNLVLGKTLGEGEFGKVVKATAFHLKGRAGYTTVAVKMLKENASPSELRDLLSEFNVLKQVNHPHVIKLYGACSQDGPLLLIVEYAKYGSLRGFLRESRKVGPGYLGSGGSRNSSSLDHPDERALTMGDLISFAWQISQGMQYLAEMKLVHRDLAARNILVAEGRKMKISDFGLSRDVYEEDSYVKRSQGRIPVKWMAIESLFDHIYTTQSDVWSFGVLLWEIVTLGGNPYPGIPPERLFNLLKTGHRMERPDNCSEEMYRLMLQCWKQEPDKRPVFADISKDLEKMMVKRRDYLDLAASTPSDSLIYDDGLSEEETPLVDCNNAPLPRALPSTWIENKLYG
As to the kind of experiment: Immunoblotting for cellular RET phosphorylation in Ba/F3 KIF5B-RET WT. The source says: The KIF5B-RET gene was synthesized at GenScript and cloned into pCDH-CMV-MCS-EF1-Puro plasmid (System Biosciences, Inc). KIF5B-RET point mutation V804M was generated at GenScript by PCR and confirmed by sequencing. Ba/F3-KIF5B-RET wild type and mutant were generated by transducing Ba/F3 cells with lentivirus containing KIF5B-RET wide type or mutant. Stable cell lines were selected by puromycin treatment, followed by IL-3 withdrawal. Briefly, 5×10^6 Ba/F3 cells were transduced with lentivirus supernatant in the presence of 8 μg/mL protamine sulfate. The transduced cells were subsequently selected with 1 µg/mL puromycin in the presence of IL3-containing medium RPMI1640, plus 10% FBS. After 10-12 days of selection, the surviving cells were further selected for IL3 independent growth.
Half a million cells per well were seeded in 24 well plate for 24 hrs, and then treated with compounds for 4 hours. […] Protein lysates (approximately […]) was resolved on 4-12% Bolt Bis-Tris precasted gels with MES running buffer (Life Technologies), transferred to nitrocellulose membranes using Trans-Blot Turbo Transfer System (Bio-Rad) and detected with antibodies targeting phosphorylated RET (Y905) (Cell Signaling Technology), total RET (Cell Signaling Technology), actin (Cell Signaling Technology). […] The relative density of the chemiluminescent bands were quantified via Image Studio Digits from LICOR. […]

Assay [3] concerns the target T3, RET (Homo sapiens, UniProt P07949, C634W).
T3 construct: host or cells: TT (human medullary thyroid carcinoma)
As to the kind of experiment: Immunoblotting for cellular RET phosphorylation in TT cells. The procedure: Human medulla thyroid carcinoma cell line TT (containing RET […] mutation) and acute myelogenous cell line KG-1 were purchased from ATCC. Human colon cancer cell line KMI2 (containing TPM3-TRKA) was obtained from NCI. Half a million cells per well were seeded in 24 well plate for 24 hrs, and then treated with compounds for 4 hours. Cells were collected after treatment and lysed in RIPA buffer (50 mM Tris, pH 7.4, 150 mM NaCl, 1% NP-40, 0.5% Deoxycholate, 0.1% SDS) supplemented with 10 mM EDTA, 1× Halt protease and phosphatase inhibitors (Thermo Scientific). Protein lysates (approximately […]) was resolved on 4-12% Bolt Bis-Tris precasted gels with MES running buffer (Life Technologies), transferred to nitrocellulose membranes using Trans-Blot Turbo Transfer System (Bio-Rad) and detected with antibodies targeting phosphorylated RET (Y905) (Cell Signaling Technology), total RET (Cell Signaling Technology), actin (Cell Signaling Technology). Antibodies were typically incubated overnight at 4° C. with gentle shake, followed by washes and incubation with the appropriate HRP-conjugated secondary antibodies. […] The relative density of the chemiluminescent bands were quantified via Image Studio Digits from LICOR. The half inhibitory concentration (IC50) value is calculated using non-linear regression analysis through GraphPad Prism software (GraphPad, Inc., San Diego, Calif.).
(In western blotting, separated proteins are transferred to a membrane and probed.)

The values that follow come from patent US10745416B2, “Macrocyclic compounds for treating disease” (Turning Point Therapeutics, Inc., priority 2017, dated 2020).

Each structure is given as a SMILES string.

T1 sequence (P07949 713-1063 G810R limits assumed): as the sequence (P07949 713-1063 limits assumed) above, with G98R counted along it
T3 sequence (P07949 29-1114 C634W): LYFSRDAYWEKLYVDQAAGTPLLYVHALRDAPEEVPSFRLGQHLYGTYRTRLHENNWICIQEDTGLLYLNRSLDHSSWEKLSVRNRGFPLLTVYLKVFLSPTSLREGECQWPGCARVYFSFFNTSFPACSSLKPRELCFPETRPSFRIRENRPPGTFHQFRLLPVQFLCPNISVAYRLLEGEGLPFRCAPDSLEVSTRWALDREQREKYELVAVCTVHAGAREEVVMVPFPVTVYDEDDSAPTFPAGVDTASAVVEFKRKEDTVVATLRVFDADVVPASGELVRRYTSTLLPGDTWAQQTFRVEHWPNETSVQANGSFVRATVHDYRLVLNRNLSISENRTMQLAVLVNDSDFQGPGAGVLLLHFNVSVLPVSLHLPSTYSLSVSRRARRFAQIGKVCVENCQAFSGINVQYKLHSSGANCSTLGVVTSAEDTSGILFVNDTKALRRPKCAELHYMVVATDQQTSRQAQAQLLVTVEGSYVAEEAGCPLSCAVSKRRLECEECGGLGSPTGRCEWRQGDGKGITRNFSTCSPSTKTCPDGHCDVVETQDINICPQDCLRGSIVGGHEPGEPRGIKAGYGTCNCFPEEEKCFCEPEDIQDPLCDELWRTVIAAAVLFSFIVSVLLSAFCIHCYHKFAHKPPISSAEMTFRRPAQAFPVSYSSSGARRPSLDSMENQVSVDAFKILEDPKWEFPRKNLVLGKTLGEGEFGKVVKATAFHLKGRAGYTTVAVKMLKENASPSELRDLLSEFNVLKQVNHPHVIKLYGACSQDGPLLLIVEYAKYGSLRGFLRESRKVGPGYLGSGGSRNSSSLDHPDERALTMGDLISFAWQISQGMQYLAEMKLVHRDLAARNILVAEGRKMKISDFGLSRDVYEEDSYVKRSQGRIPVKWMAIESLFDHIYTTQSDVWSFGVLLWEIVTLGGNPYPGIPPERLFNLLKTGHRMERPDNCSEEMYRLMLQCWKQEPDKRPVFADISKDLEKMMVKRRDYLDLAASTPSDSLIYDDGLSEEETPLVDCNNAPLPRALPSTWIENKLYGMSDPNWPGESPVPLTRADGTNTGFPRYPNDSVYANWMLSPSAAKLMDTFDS

Turning to `C[C@H]1CNC(=O)c2cnn3cc4c(nc23)N(Cc2cc(F)cnc2O1)[C@@H]1CCC[C@@H]1O4` [Compound 5, (3aR,11S,20aS)-7-fluoro-11-methyl-2,3,3a,12,13,20a-hexahydro-1H,5H-17-19-(metheno)cyclopenta[5,6][1,4] oxazino[3,4-i]pyrazolo[4,3-f]pyrido[3,2-l][1,4,8,10]oxatriazacyclotridecin-14(11H)-one], the results for the half-maximal inhibitory concentration (IC50) in assay [1], in assay [2] and in assay [3] were 3 to 10 nM, 1 to 3 nM and roughly 0.3 nM, respectively.

As a reminder, the IC50 is the concentration needed to halve the response being measured.
